The compounds below were run on Hartley-type male guinea pigs (assay: Guinea Pig Homogeneous Skin Passive Anaphylaxis Assay (PCA reaction)). Details: 10 mg/kg oral, 48 h after sensitization.
Format: in vivo, guinea pig (Hartley-type)
Outline: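 Male Hartley guinea pigs (250~300 g) given intradermal back injections of 120-fold-diluted anti-OVA serum; 48 h later test substance dosed orally at 10 mg/kg, then challenged i.v. with OVA plus Evans Blue. Dye-spot area (long × short diameter, mm^2) measured at 30 min; inhibition % calculated against solvent control.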
`CCCCOc1c(O)c2c(OC)cccc2oc1=O` [Compound 225, 3-(butoxy)-4-hydroxy-5-(methoxy)-2H-1-benzopyran-2-one] was tested, and the “Allergic reaction inhibitory index (%)” value was 35%.

Same assay, conditions: Cavia porcellus, 10 mg/kg oral, 48 h after sensitization, read-out: Allergic reaction inhibitory index (%)
With `COc1c(OC/C=C(\C)CCC=C(C)C)c2c(OC)cccc2oc1=O` [Compound 208, 3,5-(dimethoxy)-4-(geranyloxy)-2H-1-benzopyran-2-one] the inhibition in vivo at 10 mg/kg was 32%.
`COc1cccc2oc(=O)c(OC/C=C(\C)CCC=C(C)C)c(OC/C=C(\C)CCC=C(C)C)c12` [Compound 209, 3,4-(digeranyloxy)-5-(methoxy)-2H-1-benzopyran-2-one] gave an inhibition in vivo at 10 mg/kg of 33%.
With `CC(C)Oc1cccc2oc(=O)c(OC(=O)c3ccccc3)c(O)c12` [Compound 210, 3-(benzoyloxy)-4-hydroxy-5-(isopropoxy)-2H-1-benzopyran-2-one] the inhibition in vivo at 10 mg/kg was 40%.
`CC(C)Oc1cccc2oc(=O)c(O)c(O)c12` [Compound 211, 3,4-(dihydroxy)-5-(isopropoxy)-2H-1-benzopyran-2-one] showed an inhibition in vivo at 10 mg/kg of 52%.
`CC(=O)Oc1c(O)c(=O)oc2cccc(OC(C)C)c12` [Compound 212, 3-hydroxy-4-(acetoxy)-5-(isopropoxy)-2H-1-benzopyran-2-one] was tested, and the inhibition in vivo at 10 mg/kg was 37%.
In the case of `CC(=O)Oc1c(OC(C)=O)c2c(OC(C)C)cccc2oc1=O` [Compound 213, 3,4-(diacetoxy)-5-(isopropoxy)-2H-1-benzopyran-2-one], the inhibition in vivo at 10 mg/kg is reported as 33%.
In the case of `CCCCCCCCCCOc1c(O)c2c(OC(C)C)cccc2oc1=O` [Compound 214, 3-(decyloxy)-4-hydroxy-5-(isopropoxy)-2H-1-benzopyran-2-one], the inhibition in vivo at 10 mg/kg is reported as 38%.
Work on `CC(C)Oc1cccc2oc(=O)c(O)c(OC(C)C)c12` [Compound 215, 3-hydroxy-4,5-(diisopropoxy)-2H-1-benzopyran-2-one] yielded an inhibition in vivo at 10 mg/kg of 34%.
Work on `CCCCCCCCCCOc1c(OC)c(=O)oc2cccc(OC(C)C)c12` [Compound 216, 3-(methoxy)-4-(decyloxy)-5-(isopropoxy)-2H-1-benzopyran-2-one] yielded an inhibition in vivo at 10 mg/kg of 34%.
In the case of `CCCCCCCCCCOc1c(OC(C)=O)c(=O)oc2cccc(OC(C)C)c12` [Compound 217, 3-(acetoxy)-4-(decyloxy)-5-(isopropoxy)-2H-1-benzopyran-2-one], the inhibition in vivo at 10 mg/kg is reported as 30%.
In the case of `CCCCCCCCCCOc1c(OC(=O)c2ccccc2)c2c(OC(C)C)cccc2oc1=O` [Compound 218, 3-(decyloxy)-4-(benzoyloxy)-5-(isopropoxy)-2H-1-benzopyran-2-one], the inhibition in vivo at 10 mg/kg is reported as 31%.
Compound `CC(C)=CCC/C(C)=C/COc1c(O)c2c(OC(C)C)cccc2oc1=O` [Compound 219, 3-(geranyloxy)-4-hydroxy-5-(isopropoxy)-2H-1-benzopyran-2-one] has an inhibition in vivo at 10 mg/kg of 36%.
Work on `CC(C)=CCC/C(C)=C/COc1c(O)c(=O)oc2cccc(OC(C)C)c12` [Compound 220, 3-hydroxy-4-(geranyloxy)-5-(isopropoxy)-2H-1-benzopyran-2-one] yielded an inhibition in vivo at 10 mg/kg of 30%.
In the case of `CC(C)=CCC/C(C)=C/COc1c(OC(C)C)c2c(OC(C)C)cccc2oc1=O` [Compound 221, 3-(geranyloxy)-4,5-(diisopropoxy)-2H-1-benzopyran-2-one], the inhibition in vivo at 10 mg/kg is reported as 33%.
For `COc1c(OC/C=C(\C)CCC=C(C)C)c2c(OC(C)C)cccc2oc1=O` [Compound 222, 3-(methoxy)-4-(geranyloxy)-5-(isopropoxy)-2H-1-benzopyran-2-one], the inhibition in vivo at 10 mg/kg was 32%.
`CC(C)=CCC/C(C)=C/COc1c(OC/C=C(\C)CCC=C(C)C)c2c(OC(C)C)cccc2oc1=O` [Compound 223, 3,4-(digeranyloxy)-5-(isopropoxy)-2H-1-benzopyran-2-one] showed an inhibition in vivo at 10 mg/kg of 33%.
In the case of `CCCCOc1c(OC(=O)c2ccccc2)c(=O)oc2cccc(O)c12` [Compound 224, 3-(benzoyloxy)-4-(butoxy)-5-hydroxy-2H-1-benzopyran-2-one], the inhibition in vivo at 10 mg/kg is reported as 30%.
With `CCCCOc1cccc2oc(=O)c(OC(=O)c3ccccc3)c(O)c12` [Compound 226, 3-(benzoyloxy)-4-hydroxy-5-(butoxy)-2H-1-benzopyran-2-one] the inhibition in vivo at 10 mg/kg was 33%.
For `CCCCOc1cccc2oc(=O)c(O)c(O)c12` [Compound 227, 3,4-(dihydroxy)-5-(butoxy)-2H-1-benzopyran-2-one], the inhibition in vivo at 10 mg/kg was 50%.
`CCCCOc1cccc2oc(=O)c(OC(=O)c3ccccc3)c(OC)c12` [Compound 228, 3-(benzoyloxy)-4-(methoxy)-5-(butoxy)-2H-1-benzopyran-2-one] showed an inhibition in vivo at 10 mg/kg of 34%.
For `CCCCCCCCCCOc1cccc2oc(=O)c(OC(=O)c3ccccc3)c(O)c12` [Compound 229, 3-(benzoyloxy)-4-hydroxy-5-(decyloxy)-2H-1-benzopyran-2-one], the inhibition in vivo at 10 mg/kg was 37%.
With `CCCCCCCCCCOc1cccc2oc(=O)c(O)c(O)c12` [Compound 230, 3,4-(dihydroxy)-5-(decyloxy)-2H-1-benzopyran-2-one] the inhibition in vivo at 10 mg/kg was 43%.
`CCCCCCCCCCOc1cccc2oc(=O)c(O)c(OC(C)=O)c12` [Compound 231, 3-hydroxy-4-(acetoxy)-5-(decyloxy)-2H-1-benzopyran-2-one] gave an inhibition in vivo at 10 mg/kg of 31%.
`CCCCCCCCCCOc1cccc2oc(=O)c(OC(C)=O)c(OC(=O)c3ccccc3)c12` [Compound 232, 3-(acetoxy)-4-(benzoyloxy)-5-(decyloxy)-2H-1-benzopyran-2-one] was tested, and the inhibition in vivo at 10 mg/kg was 32%.
`CCCCCCCCCCOc1cccc2oc(=O)c(OC(C)C)c(O)c12` [Compound 233, 3-(isopropoxy)-4-hydroxy-5-(decyloxy)-2H-1-benzopyran-2-one] was tested, and the inhibition in vivo at 10 mg/kg was 39%.
`CCCCCCCCCCOc1cccc2oc(=O)c(O)c(OCCCC)c12` [Compound 234, 3-hydroxy-4-(butoxy)-5-(decyloxy)-2H-1-benzopyran-2-one] gave an inhibition in vivo at 10 mg/kg of 33%.
With `CCCCCCCCCCOc1cccc2oc(=O)c(OC(C)=O)c(OC(C)C)c12` [Compound 235, 3-(acetoxy)-4-(isopropoxy)-5-(decyloxy)-2H-1-benzopyran-2-one] the inhibition in vivo at 10 mg/kg was 30%.
Compound `CCCCCCCCCCOc1cccc2oc(=O)c(OC)c(OC(=O)c3ccccc3)c12` [Compound 236, 3-(methoxy)-4-(benzoyloxy)-5-(decyloxy)-2H-1-benzopyran-2-one] has an inhibition in vivo at 10 mg/kg of 31%.
In the case of `CCCCCCCCCCOc1cccc2oc(=O)c(OC/C=C(\C)CCC=C(C)C)c(O)c12` [Compound 237, 3-(geranyloxy)-4-hydroxy-5-(decyloxy)-2H-1-benzopyran-2-one], the inhibition in vivo at 10 mg/kg is reported as 34%.
In the case of `CCCCCCCCCCOc1cccc2oc(=O)c(O)c(OC/C=C(\C)CCC=C(C)C)c12` [Compound 238, 3-hydroxy-4-(geranyloxy)-5-(decyloxy)-2H-1-benzopyran-2-one], the inhibition in vivo at 10 mg/kg is reported as 33%.
`CCCCCCCCCCOc1cccc2oc(=O)c(OC/C=C(\C)CCC=C(C)C)c(OC(C)=O)c12` [Compound 239, 3-(geranyloxy)-4-(acetoxy)-5-(decyloxy)-2H-1-benzopyran-2-one] gave an inhibition in vivo at 10 mg/kg of 31%.
`CCCCCCCCCCOc1cccc2oc(=O)c(OC(=O)c3ccccc3)c(OC/C=C(\C)CCC=C(C)C)c12` [Compound 240, 3-(benzoyloxy)-4-(geranyloxy)-5-(decyloxy)-2H-1-benzopyran-2-one] showed an inhibition in vivo at 10 mg/kg of 30%.
In the case of `CCCCCCCCCCOc1cccc2oc(=O)c(OC/C=C(\C)CCC=C(C)C)c(OC)c12` [Compound 241, 3-(geranyloxy)-4-(methoxy)-5-(decyloxy)-2H-1-benzopyran-2-one], the inhibition in vivo at 10 mg/kg is reported as 32%.
For `CCCCCCCCCCOc1cccc2oc(=O)c(OC(C)C)c(OC/C=C(\C)CCC=C(C)C)c12` [Compound 242, 3-(isopropoxy)-4-(geranyloxy)-5-(decyloxy)-2H-1-benzopyran-2-one], the inhibition in vivo at 10 mg/kg was 30%.
Compound `CCCCCCCCCCOc1cccc2oc(=O)c(OC/C=C(\C)CCC=C(C)C)c(OC/C=C(\C)CCC=C(C)C)c12` [Compound 243, 3,4-(digeranyloxy)-5-(decyloxy)-2H-1-benzopyran-2-one] has an inhibition in vivo at 10 mg/kg of 31%.
For `CC(C)=CCC/C(C)=C/COc1cccc2oc(=O)c(OC(=O)c3ccccc3)c(O)c12` [Compound 244, 3-(benzoyloxy)-4-hydroxy-5-(geranyloxy)-2H-1-benzopyran-2-one], the inhibition in vivo at 10 mg/kg was 33%.
`CC(C)=CCC/C(C)=C/COc1cccc2oc(=O)c(O)c(O)c12` [Compound 245, 3,4-(dihydroxy)-5-(geranyloxy)-2H-1-benzopyran-2-one] showed an inhibition in vivo at 10 mg/kg of 37%.
With `CC(=O)Oc1c(O)c(=O)oc2cccc(OC/C=C(\C)CCC=C(C)C)c12` [Compound 246, 3-hydroxy-4-(acetoxy)-5-(geranyloxy)-2H-1-benzopyran-2-one] the inhibition in vivo at 10 mg/kg was 30%.
`CC(=O)Oc1c(OC(=O)c2ccccc2)c(=O)oc2cccc(OC/C=C(\C)CCC=C(C)C)c12` [Compound 247, 3-(benzoyloxy)-4-(acetoxy)-5-(geranyloxy)-2H-1-benzopyran-2-one] showed an inhibition in vivo at 10 mg/kg of 34%.
In the case of `COc1c(O)c2c(OC/C=C(\C)CCC=C(C)C)cccc2oc1=O` [Compound 248, 3-(methoxy)-4-hydroxy-5-(geranyloxy)-2H-1-benzopyran-2-one], the inhibition in vivo at 10 mg/kg is reported as 35%.
`CC(C)=CCC/C(C)=C/COc1cccc2oc(=O)c(O)c(OC(C)C)c12` [Compound 249, 3-hydroxy-4-(isopropoxy)-5-(geranyloxy)-2H-1-benzopyran-2-one] gave an inhibition in vivo at 10 mg/kg of 32%.
With `CCCCCCCCCCOc1c(OC(C)C)c2c(OC/C=C(\C)CCC=C(C)C)cccc2oc1=O` [Compound 250, 3-(decyloxy)-4-(isopropoxy)-5-(geranyloxy)-2H-1-benzopyran-2-one] the inhibition in vivo at 10 mg/kg was 31%.
Compound `CC(C)=CCC/C(C)=C/COc1cccc2oc(=O)c(OC(=O)c3ccccc3)c(OC(C)C)c12` [Compound 251, 3-(benzoyloxy)-4-(isopropoxy)-5-(geranyloxy)-2H-1-benzopyran-2-one] has an inhibition in vivo at 10 mg/kg of 30%.
In the case of `COc1c(OC(C)=O)c2c(OC/C=C(\C)CCC=C(C)C)cccc2oc1=O` [Compound 252, 3-(methoxy)-4-(acetoxy)-5-(geranyloxy)-2H-1-benzopyran-2-one], the inhibition in vivo at 10 mg/kg is reported as 32%.

— patent publication US5428059A, “Benzopyran derivatives and an anti-allergic agent possessing the same as the active ingredient” (Dainippon Ink & Chemicals, Inc., priority 1991, dated 1995)
